Assay results taken from patent publication US11939320B2, “Modulators of the integrated stress pathway” (Calico Life Sciences LLC, priority 2017, dated 2024).

Each compound was assayed on HEK293T cells carrying the ATF4 luciferase reporter (assay: ATF4-Luc assay (in vitro model of VWMD)). Conditions: Homo sapiens, HEK-293T; HEK293T cells with ATF4 5'-UTR firefly luciferase reporter; 1 μg/mL tunicamycin; 7 hours; One Glo luminescence.
Assay type: cell-based
Experimental: In order to test exemplary compounds of the invention in a cellular context, a stable VWMD cell line was first constructed. The ATF4 reporter was prepared by fusing the human full-length ATF4 5′-UTR (NCBI Accession No. BC022088.2) in front of the firefly luciferase (FLuc) coding sequence lacking the initiator methionine as described in Sidrauski et al (eLife 2013). The construct was used to produce recombinant retroviruses using standard methods and the resulting viral supernatant was used to transduce HEK293T cells, which were then subsequently selected with puromycin to generate a stable cell line.
HEK293T cells carrying the ATF4 luciferase reporter were plated on polylysine coated 384-well plates (Greiner Bio-one) at 30,000 cells per well. Cells were treated the next day with 1 μg/mL tunicamycin and 200 nM of a compound of Formula (I) for 7 hours. Luminescence was measured using One Glo (Promega) as specified by the manufacturer. Cells were maintained in DMEM with L-glutamine supplemented with 10% heat-inactivated FBS (Gibco) and Antibiotic-Antimycotic solution (Gibco).
Table 2 below summarizes the EC50 data obtained using the ATF4-Luc assay for exemplary compounds of the invention.

First: O=C(N[C@@H]1CC[C@@H](C(=O)NCc2ccc(C(F)(F)F)cn2)OC1)C1CNc2cc(Cl)ccc2O1 (mixture of isomers) [Compound 165, 6-chloro-N-[(3R,6S)-6-({[5-(trifluoromethyl)pyridin-2-yl]methyl}carbamoyl)oxan-3-yl]-3,4-dihydro-2H-1,4-benzoxazine-2-carboxamide]
Second: O=C(NCc1ccc(C(F)(F)F)cn1)[C@@H]1CC[C@@H](NC(=O)[C@@H]2CNc3cc(Cl)ccc3O2)CO1 (single isomer, unassigned) [Compound 161]
The EC50 of the first is lower: 0.05 to 0.25 µM for the first, 0.25 to 0.5 µM for the second.

`O=C(COc1ccc(Cl)c(F)c1)N[C@H]1CC[C@@H](C(=O)NCc2ccc(C(F)(F)F)cn2)OC1` (single isomer, unassigned) [Compound 162] and `O=C(COc1ccc(Cl)c(F)c1)N[C@@H]1CC[C@H](C(=O)NCc2ccc(C(F)(F)F)cn2)OC1` (single isomer, unassigned) [Compound 163] cannot be ordered by EC50: > 2 µM for the first, > 2 µM for the second.

Compared with `O=C(NCc1ccc(C(F)(F)F)cn1)[C@@H]1CC[C@@H](NC(=O)[C@H]2CNc3cc(Cl)ccc3O2)CO1` (single isomer, unassigned) [Compound 164], `O=C(COc1ccc(Cl)c(F)c1)N[C@H]1CC[C@H](C(=O)NCc2ccc(C(F)(F)F)cn2)CC1` [Compound 119, (1r,4r)-4-[2-(4-chloro-3-fluorophenoxy)acetamido]-N-{[5-(trifluoromethyl)pyridin-2-yl]methyl}cyclohexane-1-carboxamide] is lower in EC50: 0.05 to 0.25 µM for the first, < 0.01 µM for the second.

First: O=C(COc1ccc(Cl)c(Cl)c1)N[C@H]1CC[C@H](C(=O)NCc2ccc(C(F)(F)F)nc2)CC1 [Compound 100, (1r,4r)-4-[2-(3,4-dichlorophenoxy)acetamido]-N-{[6-(trifluoromethyl)pyridin-3-yl]methyl}cyclohexane-1-carboxamide]
Second: COc1ccc(CNC(=O)[C@H]2CC[C@H](NC(=O)COc3ccc(Cl)c(Cl)c3)CC2)cn1 [Compound 105, (1r,4r)-4-[2-(3,4-dichlorophenoxy)acetamido]-N-[(6-methoxypyridin-3-yl)methyl]cyclohexane-1-carboxamide]
The EC50 of the first is lower: 0.01 to 0.05 µM for the first, > 2 µM for the second.

First: Cc1ccc(CNC(=O)[C@H]2CC[C@H](NC(=O)COc3ccc(Cl)c(Cl)c3)CC2)nc1 [Compound 101, (1r,4r)-4-[2-(3,4-dichlorophenoxy)acetamido]-N-[(5-methylpyridin-2-yl)methyl]cyclohexane-1-carboxamide]
Second: O=C(COc1ccc(Cl)c(Cl)c1)N[C@H]1CC[C@H](C(=O)NCc2ccc(OC(F)F)cn2)CC1 [Compound 120, (1r,4r)-4-[2-(3,4-dichlorophenoxy)acetamido]-N-{[5-(difluoromethoxy)pyridin-2-yl]methyl}cyclohexane-1-carboxamide]
The EC50 of the first is higher: > 2 µM for the first, 0.01 to 0.05 µM for the second.

`O=C(COc1ccc(Cl)c(Cl)c1)N[C@H]1CC[C@H](C(=O)Nc2ccc(OC(F)F)nc2)CC1` [Compound 102, (1r,4r)-4-[2-(3,4-dichlorophenoxy)acetamido]-N-[6-(difluoromethoxy)pyridin-3-yl]cyclohexane-1-carboxamide] and `O=C(COc1ccc(Cl)c(F)c1)N[C@H]1CC[C@H](C(=O)Nc2ccc(OC(F)F)nc2)CC1` [Compound 109, (1r,4r)-4-[2-(4-chloro-3-fluorophenoxy)acetamido]-N-[6-(difluoromethoxy)pyridin-3-yl]cyclohexane-1-carboxamide] cannot be ordered by EC50: < 0.01 µM for the first, < 0.01 µM for the second.

First: O=C(COc1ccc(Cl)c(Cl)c1)N[C@H]1CC[C@H](C(=O)Nc2ccc(OCC(F)(F)F)nc2)CC1 [Compound 103, (1r,4r)-4-[2-(3,4-dichlorophenoxy)acetamido]-N-[6-(2,2,2-trifluoroethoxy)pyridin-3-yl]cyclohexane-1-carboxamide]
Second: O=C(COc1ccc(Cl)c(F)c1)N[C@H]1CC[C@H](C(=O)Nc2ccc(OCC(F)(F)F)nc2)CC1 [Compound 115, (1r,4r)-4-[2-(4-chloro-3-fluorophenoxy)acetamido]-N-[6-(2,2,2-trifluoroethoxy)pyridin-3-yl]cyclohexane-1-carboxamide]
The EC50 of the first is higher: > 2 µM for the first, 0.5 to 2 µM for the second. The second is the more potent here.

First: O=C(COc1ccc(Cl)c(Cl)c1)N[C@H]1CC[C@H](C(=O)NCc2ccc(OC(F)F)cc2)CC1 [Compound 104, (1r,4r)-4-[2-(3,4-dichlorophenoxy)acetamido]-N-{[4-(difluoromethoxy)phenyl]methyl}cyclohexane-1-carboxamide]
Second: O=C(COc1ccc(Cl)c(F)c1)N[C@H]1CC[C@H](C(=O)NCc2ccc(OC(F)F)cn2)CC1 [Compound 107, (1r,4r)-4-[2-(4-chloro-3-fluorophenoxy)acetamido]-N-{[5-(difluoromethoxy)pyridin-2-yl]methyl}cyclohexane-1-carboxamide]
The EC50 of the first is higher: 0.05 to 0.25 µM for the first, 0.01 to 0.05 µM for the second.

`CN(Cc1cccnc1)C(=O)[C@H]1CC[C@H](NC(=O)COc2ccc(Cl)c(Cl)c2)CC1` [Compound 106, (1r,4r)-4-[2-(3,4-dichlorophenoxy)acetamido]-N-methyl-N-[(pyridin-3-yl)methyl]cyclohexane-1-carboxamide] and `Cc1cncc(CNC(=O)[C@H]2CC[C@H](NC(=O)COc3ccc(Cl)c(F)c3)CC2)c1` [Compound 108, (1r,4r)-4-[2-(4-chloro-3-fluorophenoxy)acetamido]-N-[(5-methylpyridin-3-yl)methyl]cyclohexane-1-carboxamide] cannot be ordered by EC50: > 2 µM for the first, > 2 µM for the second.

`O=C(COc1ccc(Cl)c(F)c1)N[C@H]1CC[C@H](C(=O)Nc2ccc(OC(F)(F)F)cn2)CC1` [Compound 110, (1r,4r)-4-[2-(4-chloro-3-fluorophenoxy)acetamido]-N-[5-(trifluoromethoxy)pyridin-2-yl]cyclohexane-1-carboxamide] and `O=C(COc1ccc(Cl)c(F)c1)N[C@H]1CC[C@H](C(=O)Nc2ccc(Cl)c(F)c2)CC1` [Compound 111, (1r,4r)-4-[2-(4-chloro-3-fluorophenoxy)acetamido]-N-(4-chloro-3-fluorophenyl)cyclohexane-1-carboxamide] fall in the same range of EC50: 0.01 to 0.05 µM for the first, 0.01 to 0.05 µM for the second.

Compared with `O=C(COc1ccc(Cl)c(F)c1)N[C@H]1CC[C@H](C(=O)NCc2ccc(Cl)c(F)c2)CC1` [Compound 112, (1r,4r)-4-[2-(4-chloro-3-fluorophenoxy)acetamido]-N-[(4-chloro-3-fluorophenyl)methyl]cyclohexane-1-carboxamide], `O=C(COc1ccc(Cl)c(F)c1)N[C@H]1CC[C@H](C(=O)NCc2ccc(OC(F)F)nc2)CC1` [Compound 116, (1r,4r)-4-[2-(4-chloro-3-fluorophenoxy)acetamido]-N-{[6-(difluoromethoxy)pyridin-3-yl]methyl}cyclohexane-1-carboxamide] is higher in EC50: < 0.01 µM for the first, 0.05 to 0.25 µM for the second.

`O=C(COc1ccc(Cl)c(F)c1)N[C@H]1CC[C@H](C(=O)N2CCC[C@@H]2c2cc(F)ccc2F)CC1` [Compound 113, 2-(4-chloro-3-fluorophenoxy)-N-{(1R,4r)-4-[(2R)-2-(2,5-difluorophenyl)pyrrolidine-1-carbonyl]cyclohexyl}acetamide] and `O=C(COc1ccc(Cl)c(F)c1)N[C@H]1CC[C@H](C(=O)N2CCC[C@H]2c2cc(F)ccc2F)CC1` [Compound 114, 2-(4-chloro-3-fluorophenoxy)-N-{(1S,4r)-4-[(2S)-2-(2,5-difluorophenyl)pyrrolidine-1-carbonyl]cyclohexyl}acetamide] cannot be ordered by EC50: > 2 µM for the first, > 2 µM for the second.

`O=C(COc1ccc(Cl)c(F)c1)N[C@H]1CC[C@H](C(=O)NCc2ncco2)CC1` [Compound 117, (1r,4r)-4-[2-(4-chloro-3-fluorophenoxy)acetamido]-N-[(1,3-oxazol-2-yl)methyl]cyclohexane-1-carboxamide] and `O=C(COc1ccc(Cl)c(F)c1)N[C@H]1CC[C@H](C(=O)NCc2cnco2)CC1` [Compound 118, (1r,4r)-4-[2-(4-chloro-3-fluorophenoxy)acetamido]-N-[(1,3-oxazol-5-yl)methyl]cyclohexane-1-carboxamide] cannot be ordered by EC50: > 2 µM for the first, > 2 µM for the second.

First: O=C(COc1ccc(Cl)c(F)c1)N[C@H]1C[C@H](C(=O)NCc2ccc(Cl)cn2)C1 [Compound 121, (1r,3r)-3-[2-(4-chloro-3-fluorophenoxy)acetamido]-N-[(5-chloropyridin-2-yl)methyl]cyclobutane-1-carboxamide]
Second: O=C(COc1ccc(Cl)c(F)c1)N[C@H]1C[C@H](C(=O)NCc2ccc(C(F)(F)F)cn2)C1 [Compound 122, (1r,3r)-3-[2-(4-chloro-3-fluorophenoxy)acetamido]-N-{[5-(trifluoromethyl)pyridin-2-yl]methyl}cyclobutane-1-carboxamide]
The EC50 of the first is lower: 0.25 to 0.5 µM for the first, 0.5 to 2 µM for the second.

`O=C(COc1ccc(Cl)c(F)c1)N[C@H]1C[C@H](C(=O)N2CC(c3ccc(Cl)cc3)C2)C1` [Compound 123, 2-(4-chloro-3-fluorophenoxy)-N-{(1r,3r)-3-[3-(4-chlorophenyl)azetidine-1-carbonyl]cyclobutyl}acetamide] and `O=C(COc1ccc(Cl)c(F)c1)N[C@H]1CC[C@H](C(=O)N2CCN(c3ccc(Cl)cc3)C(=O)C2)CC1` [Compound 125, 2-(4-chloro-3-fluorophenoxy)-N-{(1r,4r)-4-[4-(4-chlorophenyl)-3-oxopiperazine-1-carbonyl]cyclohexyl}acetamide] fall in the same range of EC50: 0.25 to 0.5 µM for the first, 0.25 to 0.5 µM for the second.

With `O=C(COc1ccc(Cl)c(F)c1)N[C@H]1CC[C@H](C(=O)N2CC3(CN(c4ccc(Cl)c(F)c4)C3)C2)CC1` [Compound 124, 2-(4-chloro-3-fluorophenoxy)-N-{(1r,4r)-4-[6-(4-chloro-3-fluorophenyl)-2,6-diazaspiro[3.3]heptane-2-carbonyl]cyclohexyl}acetamide] the EC50 was > 2 µM.
